From patent US10183026B2, “Method of adjuvant treatment with chlorophyllin containing therapeutic preparation including for radioprotection of normal tissues during radiation therapy and kit therefor” (priority 2016, dated 2019)

Columns and labels:
MCF-7 cells = assay: Reactive oxygen species by DCFDA, DHE, DHR123 fluorescence; type: cell-based, human; settings: 50 μM
Description: MCF-7 cells (1×10^5) were stained with H2DCF-DA (10 μM) Ex./Em. 485/535 nm or dihydroethidium (DHE 5 μM) 518/605 nm or DHR 123 (5 μM) 500/536 nm for 20 min and incubated with chlorophyllin (50 μM) or vehicle for indicated time intervals at 37° C. Cells were exposed to 4 Gy IR and fluorescence was monitored at respective wavelengths using BioTek Microplate Reader (Synergy).

[1] = system: hematopoietic stem cells in the bone marrow; assay: Hoechst side population assay of bone marrow; type: in vivo, BALB/c mice; settings: 500 mg/Kg bw orally for 3 consecutive days
Description: 8- to 9 weeks-old inbred BALB/c male mice, weighing approximately 20-25 g, were grouped into untreated control and CHL treated groups.
(§1) CHL formulation dose and duration: 500 mg/Kg bw given orally for 3 consecutive days.
Side population analysis: The femur bones the above mentioned mice were dissected and the marrow was flushed out into cold Iscove's Modified Dulbecco's Medium (IMDM), 2% FBS using a 21-gauge needle. Nucleated cells were counted using Hemocytometer and trypan blue dye exclusion. Three million cells from each mouse were resuspended in pre-warmed (37° C.) DMEM without phenol red. Hoechst 33342 ([…]) was added and cells were incubated at 37° C. for 90 min with intermittent shaking. At the end of incubation, cells were washed with DMEM without phenol red and kept on ice and acquired on a flow cytometer within 2 h. Verapamil (100 μM concentration) treated bone marrow cells were used to identify the Hoechst side population in this assay.
Verapamil dose: 100 μM final concentration

G-CSF = assay: Serum levels of G-CSF as a function of time; type: in vivo, mice; settings: 500 mg/Kg bw orally for 3 days; 2, 24, 48 and 72 hrs
Description: as §1

rats = assay: Acute oral toxicity in rats; type: in vivo; settings: up to an acute oral dose of 5 gm per Kg body weight
[2] = system: MDA-MB 231 triple negative breast cancer cells; assay: Cancer stem cell frequency (CD24-CD44+, Hoechst side population), MDA-MB231; type: cell-based, human; settings: 50 μM, 4 Gy or 8 Gy
Description: (§2) For cancer stem cell analysis, by Aldefluor assay, MCF7 cells and MDA MB231 cells were stained with either Aldefluor reagent or PE-[…], APC-Cy7CD44, antibodies for 20 min on ice. The cells were washed and fixed with 1% paraformaldehyde for 20 min and stained with Hoechst 33342 (10 mg/ml) for 4 h. Isotype controls stained cells, single antibody stained cells, and fluorescence minus one (FMO) controls were used for compensation and gating. The cells were acquired on a flow Cytometer (Partec Cyflow) and analysed using FlowJo 7.6.5 (Treestar, Inc., Ashland) software.

normal lung epithelia = assay: Gamma radiation (4 Gy)-induced injury to lung epithelial cells (cellular atypia); type: in vivo
[3] = system: A549 human lung cancer cells; assay: γH2AX foci formation assay, A549; type: cell-based; settings: 50 μM
Description: (§3) A549 cells and MCF (3×10^5 cells) were grown on the coverslip, treated with 50 μM of chlorophyllin, followed by 4 Gy radiation exposure. At different time intervals after irradiation (either 15 min or 120 min), cells were fixed with 4% paraformaldehyde, permeabilized using Triton X-100, blocked with 5% bovine serum albumin and then treated with anti-γ-H2AX antibody. Then cells were stained with FITC labeled secondary antibody and visualized using fluorescence microscope. The average number of foci per cell was calculated after counting the foci from 100 cells per group.

[4] = system: MCF7 human breast cancer cells; assay: γH2AX foci formation assay, MCF7; type: cell-based; settings: 50 μM
Description: as §3

[5] = system: A549 human lung cancer cells; assay: Clonogenic survival assay, A549; type: cell-based
Description: (§4) A549 and MCF 7 cells (2000 cells for control, 4 Gy and 5000 cells for 8 Gy treatments) were plated overnight in 6 well plates followed by treatment with indicated concentrations of chlorophyllin (0, 10, 20, 50 or 100 μM) for 2 h and exposed to indicated doses of radiation. After radiation exposure plates were incubated at 37° C. in CO2 incubator for 12 days for the development of colonies. After the colony formation, the plates were washed with PBS, fixed with methanol and stained with crystal violet. The colonies with more than 50 cells were counted and the survival fraction was calculated using the following formula: Survival fraction=No. of colonies/[no. of cells plated X (plating efficiency/100)], where plating efficiency is the ratio between the number of colonies developed to the number of cells plated in control.

Gr-1+ granulocytes = assay: Frequency of Gr-1+ granulocytes in bone marrow and blood; type: in vivo, mice
Description: Percent granulocytes are a biological marker for efficacy of chlorophyllin as a radioprotector in vivo. […] This is the preferred dose range. Although percentage of granulocytes increases at doses 720 and 900 mg/kg body weight, these doses are not preferred to be translated to humans. (FIG. 1E)

[6] = system: MCF-7 human breast cancer cells; assay: Mitotic catastrophe, Hoechst stained nuclei; type: cell-based
Description: MCF-7 cells (3×10^5 cells) were grown on the coverslip, treated with indicated concentrations of chlorophyllin (0, 10, 20, 50 or 100 μM) and exposed for 48 hrs to indicated doses of radiation (4 Gy and 8 Gy). After irradiation cells were fixed and stained with Hoechst and observed under fluorescence microscope. Cells with mitotic abnormalities have been counted for each group.

[7] = system: mice exposed to whole body irradiation; assay: Protection against whole body irradiation induced mortality (30 days survival); type: in vivo, BALB/c mice; settings: 100 mg/kg bw, Intra peritoneal, 7.0 Gy
[8] = system: MCF-7 human breast cancer xenograft tumors; assay: In vivo radiosensitization of human breast cancer xenograft in SCID mice
Description: MCF-7 cells (10×10^6 in 50 μl 1×PBS and 50 μl matrigel) were injected subcutaneously in foot pad of each mouse and tumors were monitored till they developed to measurable size. Mice were then treated with 500 mg/Kg bw chlorophyllin in PBS orally for three consecutive days. After last dose administration mice were locally exposed to IR 6 Gy (at the site of tumor) and subsequently monitored for 30 days for tumor growth and survival. Measurements of tumor were taken on alternate days using digital Vernier caliper and tumor volume was recorded. At the end of 30 days tumour mass was excised for further analysis.

[9] = system: MCF7 human breast cancer cells; assay: Clonogenic survival assay, MCF7; type: cell-based
Description: as §4

bone marrow cells = assay: Colony forming units in bone marrow cells of whole body irradiated mice; type: cell-based; settings: bone marrow cells in vitro
[10] = Pharmacokinetic study, serum half-life; type: in vivo; settings: mice
[11] = system: mice exposed to whole body irradiation; assay: Protection against whole body irradiation induced mortality (30 days survival); type: in vivo, BALB/c mice; settings: for Extent of protection offered to mice against radiation induced mortality: Oral; for protection against radiation induced mortality as monitored by 30 days survival: 100-1000 mg/kg b.w. (preferred 180-500) orally, table of expected outcome
Description: (§5) Experimental animals 8- to 9 weeks-old inbred BALB/c male mice, weighing approximately 20-25 g, were treated with CHL formulation at the dose of 500 mg/Kg bw given orally for 3 consecutive days followed by whole body irradiation [using a 60Co γ-irradiator at a dose rate of 1 Gy/min (BhabhatronI II, Panacea, India)] of 7.5 Gy in one group and 6 Gy radiation to another group. Treated groups were compared to untreated control and mice treated only with CHL formulation at the given dose and mice with whole body irradiation without the CHL formulation.
To assess the in vivo radio protective efficacy of chlorophyllin, mice were given three consecutive oral administrations of: CHL formulation 1 containing chlorophyllin (500-mg/kg bw) and penicillin (10-50 mg/kg+ streptomycin 20-80 mg/kgbw) or CHL formulation 2 containing chlorophyllin (500 mg/kg bw) and tetracycline (20-80 mg/kgbw) at 24 h interval and were exposed to 8 Gy dose of whole body irradiation (which is used as a supplement to surgery during radiotherapy of cancer patients) 2 h after the last injection. Formulation 3 is chlorophyllin alone given at a dose of 500 mg/kg bw for three consecutive days with a gap of 24 h between each dose.
Trials were conducted where chlorophyllin formulation ranging from 90 mg/kg bw to 2000 mg/kg body weight were administered to mice by oral gavage for three to four consecutive days at 24 h interval between doses. Alternatively, chlorophyllin was administered by intraperitoneal route (100 mg/kg body weight) for three consecutive days at 24 h interval. The mice were exposed to different doses of whole body irradiation (7.0 Gy, 7.5 Gy or 8 Gy) 2 h after last dose of chlorophyllin. The mice were monitored for changes in body weight and survival up to 30 days after WBI.

mice = assay: Acute oral toxicity in mice; type: in vivo; settings: up to an acute oral dose of 5 gm per Kg body weight
[12] = system: MCF7 human breast cancer cells; assay: Cancer stem cell frequency (Aldefluor, CD24-CD44+, Hoechst side population), MCF7; type: cell-based; settings: 4 Gy or 8 Gy
Description: as §2

[13] = system: lineage negative cells in the bone marrow; assay: Cell cycle of lineage negative cells in the bone marrow; type: in vivo, mice; settings: specified dose
bone marrow cellularity = assay: Bone marrow cellularity after 6 Gy whole body radiation; type: in vivo, BALB/c mice; settings: 500 mg/Kg bw orally for 3 consecutive days
Description: as §5

[14] = chlorophyllin alone, 10-100 μM, 2 h

Substance: chlorophyllin
- radiation induced increase in intracellular ROS levels (MCF-7 cells; 4 Gy IR): attenuated
- background levels of free radicals (MCF-7 cells; no radiation): able to scavenge
- increase of hematopoietic stem cells versus control [1]: 2-3 fold
- abundance of hematopoietic stem cells (Hoechst side population) ([1]; control 0.121%): 0.573%
- serum levels of G-CSF (G-CSF): maximum rise after 24 hrs
- toxicity (rats): did not show any toxicity
- percentage of CD24-CD44+ cancer stem cells, combination with radiation [2]: more effective than radiation or chlorophyllin alone
- gamma radiation-induced injury to normal lung epithelia (cellular atypia) (normal lung epithelia): reduced
- number of γ-H2AX foci versus radiation alone ([3]; 15 min after 4 Gy): did not have any effect
- number of γ-H2AX foci versus radiation alone ([3]; 120 minutes after 4 Gy): significantly higher
- number of γ-H2AX foci versus radiation alone ([4]; 15 min after 4 Gy): did not have any effect
- number of γ-H2AX foci versus radiation alone ([4]; 120 minutes after 4 Gy): significantly higher
- sensitization to radiation induced loss of clonogenic capacity ([5]; A549, 4 Gy, CHL 10, 20, 50 or 100 μM): able to sensitize
- colony forming ability of A549 cells as compared to control [5, 14]: significantly decreased
- neutrophil frequency in the peripheral blood (Gr-1+ granulocytes; 500 mg/Kg bw orally for 3 days): increased neutrophil frequency
- production of granulocytes (Gr-1+) in bone marrow (Gr-1+ granulocytes; 500 mg/Kg bw orally for 3 days): increase in the production of granulocytes
- percent granulocytes, dose response (Gr-1+ granulocytes; doses up to 900 mg/kg body weight): increases up to 180 mg/kg and then plateaus up to 540 mg/kg body weight dose
- radiation toxicity in human breast cancer cells in vitro ([6]; 4 Gy or 8 Gy, 10-100 μM): enhanced the radiation toxicity
- mitotic abnormalities (micronuclei, multinucleated giant cells) ([6]; chlorophyllin prior to 4 Gy or 8 Gy, 48 h): pattern of mitotic catastrophe
- Extent of protection offered to mice against radiation induced mortality ([7]; 1 day): 30%
- Extent of protection offered to mice against radiation induced mortality ([7]; 4 days): 70%
- prevention of growth of human breast cancer cells in SCID mice ([8]; 500 mg/Kg bw orally for three days + 6 Gy focal irradiation): most effective
- reduction in tumor after exposure to IR as compared to control mice bearing human xenograft ([8]; 6 Gy, 100-1000 mg/kg b.w. (preferred 180-500) orally, three consecutive days, without antibiotics, table of expected outcome): (50%
- tumour volume ([8]; chlorophyllin alone, 500 mg/Kg bw orally for three consecutive days): significant decrease
- sensitization to radiation induced loss of clonogenic capacity ([9]; MCF-7, 4 Gy, CHL 10, 20, 50 or 100 μM): significantly sensitized
- colony forming ability of MCF-7 cells as compared to control [9, 14]: significantly decreased
- number of colony forming units (CFUs) in bone marrow cells (bone marrow cells): significantly increased
- serum half-life [10]: 2.363 h
- Extent of protection offered to mice against radiation induced mortality ([11]; 90 mg/kg bw, 3 days, 7.5 Gy): 66.6%
- Extent of protection offered to mice against radiation induced mortality ([11]; 180 mg/kg bw, 3 days, 7.5 Gy): up to 100%
- Extent of protection offered to mice against radiation induced mortality ([11]; 180 mg/kg bw, 3 days, 7.5 Gy, listed as Chlorophyllin): 100%
- Extent of protection offered to mice against radiation induced mortality ([11]; 500 mg/kg bw, 3 days, 7.5 Gy): 70%
- Extent of protection offered to mice against radiation induced mortality ([11]; 2000 mg/kg bw, 4 days, 7.0 Gy): 50%
- protection against whole body irradiation induced mortality ([11]; 7.5 Gy, 500 mg/Kg bw orally for 3 consecutive days): significantly protected
- protection against radiation induced mortality as monitored by 30 days survival ([11]; 7.5 Gy, three consecutive days, without antibiotics): 100%
- rescue from WBI-induced mortality, 30 days survival ([11]; 8 Gy WBI, 500 mg/kg bw, three consecutive days, 80% of irradiated mice died within 17 days): rescued all the mice
- protection against radiation induced mortality as monitored by 30 days survival ([11]; 8 Gy, three consecutive days, with antibiotics): 100%
- Extent of protection offered to mice against radiation induced mortality ([11]; chlorophyllin 500 mg/kg bw, 3 days, 8.0 Gy): 60%
- toxicity (mice): did not show any toxicity
- percentage of CD24-CD44+ cancer stem cells, combination with radiation ([12]; 50 μM): more effective than radiation or chlorophyllin alone
- radiation induced increase in ALDH-positive cells ([12]; 100 μM): significantly attenuated
- cell cycle effect in lineage negative cells in the bone marrow [13]: transient cell cycle arrest
- recovery from radiation induced bone marrow aplasia (bone marrow cellularity): enhanced the recovery
